ChEMBL document CHEMBL4649994
Several values for one entry are separate records, joined by “and”; a condition that tells them apart may be missing. Identical values can stand only once.

Assays:
Conditions in all cases: Compound concentration 10.0 uM, Protein concentration 2.0 uM
[1] = target: Transcription initiation factor TFIID subunit 1-like (Homo sapiens) (UniProt Q8IZX4)
[2] = target: Histone acetyltransferase p300 (Homo sapiens) (UniProt Q09472)
[3] = target: Peregrin (Homo sapiens) (UniProt P55201)
[4] = target: Protein polybromo-1 (Homo sapiens) (UniProt Q86U86)
[5] = target: Bromodomain-containing protein 3 (Homo sapiens) (UniProt Q15059); assay: Thermal Shift Assay. Domain start/stop: P24-E144
[6] = target: Transcription initiation factor TFIID subunit 1 (Homo sapiens) (UniProt P21675)
[7] = target: Nuclear body protein SP140-like protein (Homo sapiens) (UniProt Q9H930)
[8] = target: Transcription intermediary factor 1-beta (Homo sapiens) (UniProt Q13263)
[9] = target: Bromodomain and WD repeat-containing protein 3 (Homo sapiens) (UniProt Q6RI45)
[10] = target: Bromodomain and PHD finger-containing protein 3 (Homo sapiens) (UniProt Q9ULD4)
[11] = target: Bromodomain-containing protein 3 (Homo sapiens) (UniProt Q15059)
[12] = target: Histone-lysine N-methyltransferase ASH1L (Homo sapiens) (UniProt Q9NR48)
[13] = target: Histone acetyltransferase KAT2A (Homo sapiens) (UniProt Q92830)
[14] = target: PH-interacting protein (Homo sapiens) (UniProt Q8WWQ0)
[15] = target: Bromodomain testis-specific protein (Homo sapiens) (UniProt Q58F21)
[16] = target: Bromodomain adjacent to zinc finger domain protein 2B (Homo sapiens) (UniProt Q9UIF8)
[17] = target: SWI/SNF-related matrix-associated actin-dependent regulator of chromatin subfamily A member 2 (Homo sapiens) (UniProt P51531)
[18] = target: Transcription intermediary factor 1-alpha (Homo sapiens) (UniProt O15164)
[19] = target: Tripartite motif-containing protein 66 (Homo sapiens) (UniProt O15016); assay: Thermal Shift Assay. Domain start/stop: M1091-S1218
[20] = target: Protein polybromo-1 (Homo sapiens) (UniProt Q86U86); remark: listed apart in the source
[21] = target: Bromodomain-containing protein 2 (Homo sapiens) (UniProt P25440)
[22] = target: Bromodomain adjacent to zinc finger domain protein 1A (Homo sapiens) (UniProt Q9NRL2)
[23] = target: Protein polybromo-1 (Homo sapiens) (UniProt Q86U86); assay: Thermal Shift Assay. Domain start/stop: H23-D159
[24] = target: Bromodomain-containing protein 9 (Homo sapiens) (UniProt Q9H8M2)
[25] = target: Transcription initiation factor TFIID subunit 1 (Homo sapiens) (UniProt P21675); remark: listed apart in the source
[26] = target: Transcription initiation factor TFIID subunit 1-like (Homo sapiens) (UniProt Q8IZX4); remark: listed apart in the source
[27] = target: Nuclear body protein SP140 (Homo sapiens) (UniProt Q13342)
[28] = target: Peregrin (Homo sapiens) (UniProt P55201); remark: listed apart in the source
[29] = target: Protein polybromo-1 (Homo sapiens) (UniProt Q86U86); remark: listed apart in the source
[30] = target: Bromodomain adjacent to zinc finger domain protein 2A (Homo sapiens) (UniProt Q9UIF9)
[31] = target: ATPase family AAA domain-containing protein 2 (Homo sapiens) (UniProt Q6PL18)
[32] = target: CREB-binding protein (Homo sapiens) (UniProt Q92793)
[33] = target: SWI/SNF-related matrix-associated actin-dependent regulator of chromatin subfamily A member 4 (Homo sapiens) (UniProt P51532)
[34] = target: Nucleosome-remodeling factor subunit BPTF (Homo sapiens) (UniProt Q12830)
[35] = target: Bromodomain-containing protein 2 (Homo sapiens) (UniProt P25440); remark: listed apart in the source
[36] = target: Chromatin remodeling regulator CECR2 (Homo sapiens) (UniProt Q9BXF3)
[37] = target: ATPase family AAA domain-containing protein 2B (Homo sapiens) (UniProt Q9ULI0)
[38] = target: Protein polybromo-1 (Homo sapiens) (UniProt Q86U86); assay: Thermal Shift Assay. Domain start/stop: R487-D598
[39] = target: Bromodomain-containing protein 1 (Homo sapiens) (UniProt O95696)
[40] = target: Protein polybromo-1 (Homo sapiens) (UniProt Q86U86); remark: listed apart in the source
[41] = target: Histone acetyltransferase KAT2B (Homo sapiens) (UniProt Q92831)

Bromodomain-containing protein 3 (Homo sapiens), sequence (Q15059 2-726 limits assumed): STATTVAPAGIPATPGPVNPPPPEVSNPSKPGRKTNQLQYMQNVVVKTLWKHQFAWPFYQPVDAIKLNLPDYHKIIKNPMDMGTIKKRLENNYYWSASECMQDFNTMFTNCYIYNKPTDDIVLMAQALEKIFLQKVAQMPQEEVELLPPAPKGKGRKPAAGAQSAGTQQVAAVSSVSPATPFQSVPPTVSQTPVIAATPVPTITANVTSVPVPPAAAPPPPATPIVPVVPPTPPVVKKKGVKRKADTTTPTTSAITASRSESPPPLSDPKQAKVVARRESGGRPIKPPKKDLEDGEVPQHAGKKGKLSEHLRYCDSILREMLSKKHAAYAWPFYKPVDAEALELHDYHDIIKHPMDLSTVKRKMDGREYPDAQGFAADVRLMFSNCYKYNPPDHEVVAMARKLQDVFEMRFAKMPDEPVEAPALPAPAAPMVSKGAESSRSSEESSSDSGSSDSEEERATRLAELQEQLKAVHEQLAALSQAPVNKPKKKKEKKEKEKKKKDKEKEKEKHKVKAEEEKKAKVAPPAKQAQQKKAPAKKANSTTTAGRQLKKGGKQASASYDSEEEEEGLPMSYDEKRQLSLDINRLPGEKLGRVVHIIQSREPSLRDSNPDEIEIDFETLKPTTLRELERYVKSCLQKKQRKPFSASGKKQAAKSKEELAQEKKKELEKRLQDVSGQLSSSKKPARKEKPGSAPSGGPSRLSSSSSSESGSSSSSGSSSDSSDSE
Bromodomain-containing protein 2 (Homo sapiens), sequence (P25440 whole entry, looked up, the tested form may be a part): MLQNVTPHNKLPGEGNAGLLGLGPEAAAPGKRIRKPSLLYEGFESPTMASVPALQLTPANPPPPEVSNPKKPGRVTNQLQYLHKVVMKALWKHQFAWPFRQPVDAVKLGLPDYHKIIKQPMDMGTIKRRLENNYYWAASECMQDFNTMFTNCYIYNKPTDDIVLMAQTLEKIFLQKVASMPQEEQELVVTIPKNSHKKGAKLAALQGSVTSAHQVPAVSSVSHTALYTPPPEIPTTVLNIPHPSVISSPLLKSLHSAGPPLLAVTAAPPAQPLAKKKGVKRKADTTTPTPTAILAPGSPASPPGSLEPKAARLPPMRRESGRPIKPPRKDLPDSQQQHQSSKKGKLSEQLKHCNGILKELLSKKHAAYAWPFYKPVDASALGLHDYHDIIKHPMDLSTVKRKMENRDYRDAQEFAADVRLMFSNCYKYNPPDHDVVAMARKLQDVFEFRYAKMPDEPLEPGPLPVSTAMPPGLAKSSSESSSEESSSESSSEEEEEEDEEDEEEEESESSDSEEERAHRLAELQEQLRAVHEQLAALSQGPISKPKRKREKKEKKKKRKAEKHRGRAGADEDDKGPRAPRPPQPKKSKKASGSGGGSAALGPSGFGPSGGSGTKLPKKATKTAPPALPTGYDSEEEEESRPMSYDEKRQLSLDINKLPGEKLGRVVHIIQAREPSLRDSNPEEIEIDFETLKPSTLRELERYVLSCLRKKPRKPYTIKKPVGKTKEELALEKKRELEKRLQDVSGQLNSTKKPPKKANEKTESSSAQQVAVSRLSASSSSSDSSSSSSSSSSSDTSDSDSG
Protein polybromo-1 (Homo sapiens), sequence (Q86U86 whole entry, the tested form may be a part): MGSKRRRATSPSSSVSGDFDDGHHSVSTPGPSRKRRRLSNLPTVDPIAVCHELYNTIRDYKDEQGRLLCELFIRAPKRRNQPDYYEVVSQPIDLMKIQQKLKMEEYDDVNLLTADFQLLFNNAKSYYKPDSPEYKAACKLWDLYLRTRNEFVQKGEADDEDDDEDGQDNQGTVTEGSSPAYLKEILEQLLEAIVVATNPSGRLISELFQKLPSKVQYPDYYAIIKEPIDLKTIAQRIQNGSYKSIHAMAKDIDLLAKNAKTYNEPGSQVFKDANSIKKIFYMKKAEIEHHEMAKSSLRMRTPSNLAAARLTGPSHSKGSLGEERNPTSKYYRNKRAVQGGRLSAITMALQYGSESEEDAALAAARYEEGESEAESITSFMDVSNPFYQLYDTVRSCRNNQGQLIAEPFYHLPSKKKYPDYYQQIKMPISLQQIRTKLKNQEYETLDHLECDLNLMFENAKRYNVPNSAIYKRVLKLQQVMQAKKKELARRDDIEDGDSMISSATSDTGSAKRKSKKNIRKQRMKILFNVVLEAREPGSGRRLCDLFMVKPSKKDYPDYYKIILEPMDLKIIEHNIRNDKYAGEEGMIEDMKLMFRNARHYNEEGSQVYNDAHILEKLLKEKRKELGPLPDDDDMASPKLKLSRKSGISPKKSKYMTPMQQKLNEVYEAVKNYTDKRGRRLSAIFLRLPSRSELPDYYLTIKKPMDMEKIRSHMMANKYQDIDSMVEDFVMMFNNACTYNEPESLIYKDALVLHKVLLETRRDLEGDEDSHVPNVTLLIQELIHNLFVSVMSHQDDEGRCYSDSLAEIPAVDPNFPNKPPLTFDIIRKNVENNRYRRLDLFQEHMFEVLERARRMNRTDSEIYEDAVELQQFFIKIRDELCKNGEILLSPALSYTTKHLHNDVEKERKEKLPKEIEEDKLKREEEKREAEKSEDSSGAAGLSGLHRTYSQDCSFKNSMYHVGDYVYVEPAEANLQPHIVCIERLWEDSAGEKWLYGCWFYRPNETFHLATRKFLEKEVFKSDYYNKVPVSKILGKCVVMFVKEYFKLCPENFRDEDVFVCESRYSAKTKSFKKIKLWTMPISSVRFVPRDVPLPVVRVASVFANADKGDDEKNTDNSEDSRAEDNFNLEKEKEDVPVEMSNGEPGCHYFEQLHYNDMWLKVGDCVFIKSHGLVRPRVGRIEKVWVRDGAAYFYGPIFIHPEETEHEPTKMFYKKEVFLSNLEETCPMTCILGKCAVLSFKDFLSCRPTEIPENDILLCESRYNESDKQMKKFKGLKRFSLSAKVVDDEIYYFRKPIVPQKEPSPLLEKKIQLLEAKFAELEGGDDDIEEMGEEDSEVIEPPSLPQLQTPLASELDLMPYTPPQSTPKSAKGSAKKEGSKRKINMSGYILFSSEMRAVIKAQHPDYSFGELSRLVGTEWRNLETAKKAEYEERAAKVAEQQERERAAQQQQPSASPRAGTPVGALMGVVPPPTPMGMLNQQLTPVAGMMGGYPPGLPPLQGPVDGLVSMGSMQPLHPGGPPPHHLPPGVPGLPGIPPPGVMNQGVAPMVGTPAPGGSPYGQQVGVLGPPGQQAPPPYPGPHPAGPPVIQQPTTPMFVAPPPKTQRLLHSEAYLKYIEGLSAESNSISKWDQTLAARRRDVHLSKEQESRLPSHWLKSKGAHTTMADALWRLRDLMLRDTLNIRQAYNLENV
Transcription initiation factor TFIID subunit 1 (Homo sapiens), sequence (P21675 whole entry): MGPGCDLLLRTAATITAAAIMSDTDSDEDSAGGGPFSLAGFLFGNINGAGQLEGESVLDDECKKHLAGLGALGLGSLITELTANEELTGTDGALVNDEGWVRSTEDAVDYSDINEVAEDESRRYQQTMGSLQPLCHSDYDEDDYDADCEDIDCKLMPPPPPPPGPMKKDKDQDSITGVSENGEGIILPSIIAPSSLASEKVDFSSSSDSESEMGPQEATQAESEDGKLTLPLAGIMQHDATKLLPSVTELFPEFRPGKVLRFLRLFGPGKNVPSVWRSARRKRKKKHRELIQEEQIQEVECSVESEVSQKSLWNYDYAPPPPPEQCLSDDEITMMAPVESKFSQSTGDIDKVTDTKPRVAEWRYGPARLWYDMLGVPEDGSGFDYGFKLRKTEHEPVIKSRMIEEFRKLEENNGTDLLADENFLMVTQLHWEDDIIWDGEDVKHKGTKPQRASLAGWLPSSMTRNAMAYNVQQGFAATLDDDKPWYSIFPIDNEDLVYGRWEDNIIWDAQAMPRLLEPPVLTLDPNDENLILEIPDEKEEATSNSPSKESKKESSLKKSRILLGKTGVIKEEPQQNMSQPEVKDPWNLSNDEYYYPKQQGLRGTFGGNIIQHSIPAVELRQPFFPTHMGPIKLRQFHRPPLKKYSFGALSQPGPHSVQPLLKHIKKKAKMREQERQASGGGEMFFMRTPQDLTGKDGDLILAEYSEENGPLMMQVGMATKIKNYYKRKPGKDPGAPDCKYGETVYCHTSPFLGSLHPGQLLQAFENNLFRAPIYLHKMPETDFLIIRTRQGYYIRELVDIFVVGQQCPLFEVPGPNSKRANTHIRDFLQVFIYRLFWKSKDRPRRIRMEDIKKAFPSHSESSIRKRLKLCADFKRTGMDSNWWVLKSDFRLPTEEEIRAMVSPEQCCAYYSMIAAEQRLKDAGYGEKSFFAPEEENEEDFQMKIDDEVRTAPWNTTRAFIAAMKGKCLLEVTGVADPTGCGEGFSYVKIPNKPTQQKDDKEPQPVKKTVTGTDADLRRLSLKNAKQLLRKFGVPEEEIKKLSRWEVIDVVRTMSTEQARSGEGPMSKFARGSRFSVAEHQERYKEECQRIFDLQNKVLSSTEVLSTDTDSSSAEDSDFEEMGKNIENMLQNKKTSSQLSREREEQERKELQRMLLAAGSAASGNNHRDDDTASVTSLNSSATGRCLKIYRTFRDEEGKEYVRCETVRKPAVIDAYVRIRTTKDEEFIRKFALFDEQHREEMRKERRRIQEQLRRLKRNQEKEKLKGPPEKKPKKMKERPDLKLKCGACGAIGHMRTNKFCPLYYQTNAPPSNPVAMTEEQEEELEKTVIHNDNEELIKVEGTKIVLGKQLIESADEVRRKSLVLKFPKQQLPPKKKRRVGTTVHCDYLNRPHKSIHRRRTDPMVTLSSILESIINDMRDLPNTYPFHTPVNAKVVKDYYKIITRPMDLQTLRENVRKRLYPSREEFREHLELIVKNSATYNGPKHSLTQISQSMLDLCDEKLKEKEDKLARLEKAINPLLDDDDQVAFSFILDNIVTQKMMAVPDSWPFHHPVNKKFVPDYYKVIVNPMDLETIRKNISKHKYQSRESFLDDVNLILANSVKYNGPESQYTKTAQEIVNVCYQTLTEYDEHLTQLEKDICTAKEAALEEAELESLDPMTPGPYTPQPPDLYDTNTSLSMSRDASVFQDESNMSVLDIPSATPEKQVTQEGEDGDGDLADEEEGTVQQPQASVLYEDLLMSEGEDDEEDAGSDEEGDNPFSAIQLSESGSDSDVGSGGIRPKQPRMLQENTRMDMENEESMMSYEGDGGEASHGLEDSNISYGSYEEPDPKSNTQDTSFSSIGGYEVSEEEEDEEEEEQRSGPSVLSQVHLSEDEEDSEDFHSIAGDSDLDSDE

ΔTm [1]: 0.52 °C | ΔTm [2]: 2.71 °C | ΔTm [3]: 0.68 °C | ΔTm [4]: 0.99 °C | ΔTm [5]: 3.99 °C and 5.24 °C | ΔTm [6]: -0.08 °C | ΔTm [7]: 0.12 °C | ΔTm [8]: 0.29 °C | ΔTm [9]: 0.16 °C | ΔTm [10]: 1.72 °C | ΔTm [11]: 4.59 °C and 5.45 °C | ΔTm [12]: -0.34 °C | ΔTm [13]: 0.43 °C | ΔTm [14]: 1.07 °C | ΔTm [15]: 2.08 °C | ΔTm [16]: 0.66 °C and 0.25 °C | ΔTm [17]: 0.49 °C | ΔTm [18]: 0.57 °C | ΔTm [19]: 0.42 °C | ΔTm [20]: 0.83 °C and -0.18 °C | ΔTm [21]: 5.32 °C | ΔTm [22]: 1.62 °C | ΔTm [23]: 0.75 °C | ΔTm [24]: 1.96 °C | ΔTm [25]: 0.62 °C | ΔTm [26]: 0.78 °C | ΔTm [27]: 0.1 °C | ΔTm [28]: 2.42 °C | ΔTm [29]: 0.62 °C | ΔTm [30]: 1.02 °C | ΔTm [31]: 0.71 °C | ΔTm [32]: 2.09 °C and 2.66 °C | ΔTm [33]: 0.51 °C | ΔTm [34]: 0.44 °C | ΔTm [35]: 4.61 °C and 3.1 °C | ΔTm [36]: -0.22 °C | ΔTm [37]: 0.1 °C | ΔTm [38]: 1.03 °C | ΔTm [39]: 1.19 °C and 0.62 °C | ΔTm [40]: -0.18 °C | ΔTm [41]: -0.1 °C and 0.81 °C
Structure (SMILES): COc1ccccc1S(=O)(=O)Nc1ccc2c(c1)CN(C)C(=O)N2
